Test results as given in ChEMBL document CHEMBL1201862, “PubChem BioAssay data set” (2004).
Activity calls are given as the source filed them.

Legend:
[1] = tested on: BJ; assay: cytotoxicity toward BJ-TERT fibroblasts, dose response, cell-based, RAS-independent, luminescence (AID 1933); assay type: functional; settings: Homo sapiens
[2] = tested on: BJ; assay: cells; assay type: functional, cell-based; settings: Homo sapiens
[3] = biological target: Luciferin 4-monooxygenase (Photinus pyralis, UniProt P08659); assay: firefly luciferase enzyme inhibitors, dose response, biochemical, luminescence (AID 1891)
[4] = Luminescence Cell-Based Dose Confirmation HTS to Identify Inhibitors of Platelet Dense Granule Release. [Related pubchem assays: 1663 (Primary HTS), 1678 (Summary of Project)]; assay type: functional
[5] = tested on: BJ; assay: cytotoxicity toward BJ-TERT-LT-ST fibroblasts, dose response, cell-based, RAS-independent, luminescence (AID 1935); assay type: functional; settings: Homo sapiens;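 note: BJ fibroblasts immortalized with TERT plus LT and ST oncogenes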
[6] = cytotoxicity toward DRD oncogenic fibroblasts, dose response, cell-based, non-viral oncogenic, luminescence (AID 1934); assay type: functional; settings: Homo sapiens
[7] = Luminescence Cell-Based Dose Retest to Confirm Inhibitors of Cancer Stem Cells. [Related pubchem assays (depositor defined):AID2717, AID2721]; assay type: functional; settings: Homo sapiens
[8] = tested on: BJ; assay: cytotoxicity toward Ras-transformed BJeLR fibroblasts, dose response, cell-based, alamar blue fluorescence, cherrypicked samples (AID 2631); assay type: functional; settings: Homo sapiens;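 note: confirmatory dose-response assay in RAS-dependent BJ fibroblasts engineered with TERT, LT and ST, with cytotoxicity read by fluorescence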
[9] = biological target: DNA (cytosine-5)-methyltransferase 1 (Homo sapiens, UniProt P26358); assay: DNMT1 methyltransferase inhibitors, confirmation, biochemical, fluorescent molecular beacon (AID 602386); assay type: functional
[10] = biological target: Mu-type opioid receptor (Homo sapiens, UniProt P35372); assay type: functional, cell-based;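 note: U2OS cells with beta-arrestin recruitment to OPRM1 by beta-gal complementation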
[11] = biological target: 5-hydroxytryptamine receptor 2A (Mus musculus, UniProt P35363); assay type: functional, cell-based;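 note: CHO-K1 cells with tagged receptor and beta-arrestin; agonist potency measured as compound-induced activation of the receptor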
[12] = biological target: T1, High affinity choline transporter 1 (Homo sapiens, UniProt Q9GZV3); assay: CHT inhibitors, dose response, cell-based, 5-point CRC, membrane potential dye (AID 504840); assay type: functional
T1 sequence (Q9GZV3 whole entry): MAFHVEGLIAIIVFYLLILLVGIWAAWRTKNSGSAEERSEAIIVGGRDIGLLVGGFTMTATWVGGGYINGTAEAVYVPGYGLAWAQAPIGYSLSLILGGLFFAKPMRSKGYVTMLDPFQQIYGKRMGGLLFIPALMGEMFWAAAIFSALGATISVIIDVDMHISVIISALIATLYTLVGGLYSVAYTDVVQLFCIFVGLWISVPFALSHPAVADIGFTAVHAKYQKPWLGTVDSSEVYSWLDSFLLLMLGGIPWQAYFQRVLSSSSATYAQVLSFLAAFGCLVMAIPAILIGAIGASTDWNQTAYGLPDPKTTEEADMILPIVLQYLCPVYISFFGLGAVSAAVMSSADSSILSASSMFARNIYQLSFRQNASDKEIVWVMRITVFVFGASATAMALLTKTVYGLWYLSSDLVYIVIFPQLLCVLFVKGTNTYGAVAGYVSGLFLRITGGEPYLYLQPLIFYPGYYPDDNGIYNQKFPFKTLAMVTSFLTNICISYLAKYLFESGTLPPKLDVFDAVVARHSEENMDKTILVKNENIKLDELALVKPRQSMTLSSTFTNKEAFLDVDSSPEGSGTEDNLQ

[13] = biological target: T1, High affinity choline transporter 1; assay: CHT inhibitors, dose response, cell-based, 10-point CRC, membrane potential dye (AID 588401); assay type: functional;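 note: membrane potential dye fluorescence of choline-evoked depolarization via CHT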
[14] = biological target: Ras and Rab interactor 1/Tyrosine-protein kinase ABL1 (Homo sapiens, UniProt P00519+Q13671); assay type: functional;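 note: biochemical TR-FRET dose-response test measuring inhibition of binding between Rin1 and Abl proteins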
[15] = biological target: T2, Cysteine protease ATG4B (Homo sapiens, UniProt Q9Y4P1); assay type: functional;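 note: Fluorescence-based dose-response confirmation assay measuring inhibition of ATG4B activity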
T2 sequence (Q9Y4P1 whole entry): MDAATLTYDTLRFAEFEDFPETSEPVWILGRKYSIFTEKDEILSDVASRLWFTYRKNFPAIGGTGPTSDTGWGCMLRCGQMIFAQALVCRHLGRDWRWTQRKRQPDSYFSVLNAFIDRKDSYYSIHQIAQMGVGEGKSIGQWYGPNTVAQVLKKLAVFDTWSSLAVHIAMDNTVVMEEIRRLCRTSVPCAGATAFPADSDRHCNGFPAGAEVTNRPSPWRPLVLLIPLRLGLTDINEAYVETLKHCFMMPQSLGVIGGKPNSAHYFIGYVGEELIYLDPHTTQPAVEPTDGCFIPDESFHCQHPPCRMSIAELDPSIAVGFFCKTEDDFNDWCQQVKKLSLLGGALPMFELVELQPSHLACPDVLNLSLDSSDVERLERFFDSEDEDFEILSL

[16] = biological target: Phospholipase A2 (Homo sapiens, UniProt P04054); assay type: functional;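 note: confirmatory dose-response counterscreen on phospholipase A2, testing hits that came from an ultra-high-throughput screen for ATG4B inhibitors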
[17] = biological target: Tyrosine-protein phosphatase non-receptor type 11 (Homo sapiens, UniProt Q06124); assay: SHP2 phosphatase inhibition, dose response, selectivity assay for STEP inhibitor project, biochemical (AID 602367); assay type: functional; settings: read-out: IC50_Mean
[18] = biological target: Tyrosine-protein phosphatase non-receptor type 5 (Homo sapiens, UniProt P54829); assay: STEP phosphatase inhibitors, confirmation, biochemical, fluorescence intensity, uHTS hits (AID 602372); assay type: functional; settings: read-out: IC50_Mean
[19] = biological target: T3, Dual specificity protein phosphatase 3 (Homo sapiens, UniProt P51452); assay: VHR phosphatase inhibition, dose response, selectivity assay for STEP inhibitor project, biochemical (AID 602374); assay type: functional; settings: read-out: IC50_Mean
[20] = biological target: T3, Dual specificity protein phosphatase 3; assay: VHR1 phosphatase inhibitors, primary screen, biochemical, absorbance, uHTS (AID 1654)
[21] = biological target: T3, Dual specificity protein phosphatase 3; assay: VHR1 phosphatase inhibitors, biochemical (AID 1878)
[22] = biological target: T4, Dual specificity protein phosphatase 6 (Rattus norvegicus, UniProt Q64346); assay: MKP-3 phosphatase inhibitors, primary screen, biochemical, rat enzyme, in vitro (AID 425)
T4 sequence (Q64346 whole entry): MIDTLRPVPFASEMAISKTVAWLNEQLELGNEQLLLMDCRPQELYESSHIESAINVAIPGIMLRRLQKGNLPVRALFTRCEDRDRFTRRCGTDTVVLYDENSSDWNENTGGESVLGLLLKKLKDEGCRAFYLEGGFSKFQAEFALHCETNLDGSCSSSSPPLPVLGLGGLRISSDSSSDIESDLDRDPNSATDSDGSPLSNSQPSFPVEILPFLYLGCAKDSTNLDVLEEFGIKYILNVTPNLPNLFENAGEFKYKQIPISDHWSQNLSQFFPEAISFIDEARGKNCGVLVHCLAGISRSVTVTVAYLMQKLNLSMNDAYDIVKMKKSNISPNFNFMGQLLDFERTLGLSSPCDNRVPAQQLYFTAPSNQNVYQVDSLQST
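Throughout, for AC50: cells exposed to compound for roughly 70 hours or longer before luminescence read.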

T3 sequence (P51452 whole entry): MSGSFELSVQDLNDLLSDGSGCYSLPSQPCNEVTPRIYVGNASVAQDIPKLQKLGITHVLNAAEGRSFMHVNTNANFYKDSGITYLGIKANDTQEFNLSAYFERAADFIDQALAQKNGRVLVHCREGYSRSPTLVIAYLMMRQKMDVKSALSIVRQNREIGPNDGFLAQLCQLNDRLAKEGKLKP
Sequence of Tyrosine-protein phosphatase non-receptor type 11 (Q06124 whole entry): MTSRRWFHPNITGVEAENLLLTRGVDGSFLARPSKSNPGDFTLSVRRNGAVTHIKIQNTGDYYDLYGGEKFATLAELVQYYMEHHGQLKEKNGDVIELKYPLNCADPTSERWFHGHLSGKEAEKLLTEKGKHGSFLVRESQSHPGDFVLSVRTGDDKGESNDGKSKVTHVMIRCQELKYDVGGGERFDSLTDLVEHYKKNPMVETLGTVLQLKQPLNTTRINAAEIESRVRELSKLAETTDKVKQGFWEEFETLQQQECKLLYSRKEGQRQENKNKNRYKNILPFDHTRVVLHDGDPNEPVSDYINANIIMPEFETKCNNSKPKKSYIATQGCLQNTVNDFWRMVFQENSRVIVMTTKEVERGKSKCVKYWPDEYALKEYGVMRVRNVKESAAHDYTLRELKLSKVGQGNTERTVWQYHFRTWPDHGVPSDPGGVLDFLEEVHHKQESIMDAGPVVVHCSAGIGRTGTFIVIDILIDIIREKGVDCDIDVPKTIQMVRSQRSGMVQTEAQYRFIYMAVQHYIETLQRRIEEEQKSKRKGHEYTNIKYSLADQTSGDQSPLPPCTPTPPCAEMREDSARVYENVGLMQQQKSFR
Sequence of Tyrosine-protein phosphatase non-receptor type 5 (P54829 whole entry): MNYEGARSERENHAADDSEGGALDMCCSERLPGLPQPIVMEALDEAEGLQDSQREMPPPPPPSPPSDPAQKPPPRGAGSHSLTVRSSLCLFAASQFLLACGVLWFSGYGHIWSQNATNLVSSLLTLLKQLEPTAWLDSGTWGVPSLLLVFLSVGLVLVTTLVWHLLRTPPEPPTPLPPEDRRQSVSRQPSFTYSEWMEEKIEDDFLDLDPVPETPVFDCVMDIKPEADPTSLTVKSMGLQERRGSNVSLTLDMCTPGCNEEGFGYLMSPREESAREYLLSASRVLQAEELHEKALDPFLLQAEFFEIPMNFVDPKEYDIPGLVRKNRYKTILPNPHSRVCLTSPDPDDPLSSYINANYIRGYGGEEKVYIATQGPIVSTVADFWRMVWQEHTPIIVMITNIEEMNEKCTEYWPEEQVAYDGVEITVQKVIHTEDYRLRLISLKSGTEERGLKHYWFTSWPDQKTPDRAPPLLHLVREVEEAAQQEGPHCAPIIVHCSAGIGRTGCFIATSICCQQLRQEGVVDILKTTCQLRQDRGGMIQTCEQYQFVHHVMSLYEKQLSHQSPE
Sequence of Phospholipase A2 (P04054 whole entry): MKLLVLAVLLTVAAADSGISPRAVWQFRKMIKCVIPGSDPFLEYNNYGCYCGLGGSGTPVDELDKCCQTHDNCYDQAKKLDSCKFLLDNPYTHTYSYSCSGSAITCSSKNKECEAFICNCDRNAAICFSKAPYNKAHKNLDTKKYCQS
Sequence of DNA (cytosine-5)-methyltransferase 1 (P26358 whole entry): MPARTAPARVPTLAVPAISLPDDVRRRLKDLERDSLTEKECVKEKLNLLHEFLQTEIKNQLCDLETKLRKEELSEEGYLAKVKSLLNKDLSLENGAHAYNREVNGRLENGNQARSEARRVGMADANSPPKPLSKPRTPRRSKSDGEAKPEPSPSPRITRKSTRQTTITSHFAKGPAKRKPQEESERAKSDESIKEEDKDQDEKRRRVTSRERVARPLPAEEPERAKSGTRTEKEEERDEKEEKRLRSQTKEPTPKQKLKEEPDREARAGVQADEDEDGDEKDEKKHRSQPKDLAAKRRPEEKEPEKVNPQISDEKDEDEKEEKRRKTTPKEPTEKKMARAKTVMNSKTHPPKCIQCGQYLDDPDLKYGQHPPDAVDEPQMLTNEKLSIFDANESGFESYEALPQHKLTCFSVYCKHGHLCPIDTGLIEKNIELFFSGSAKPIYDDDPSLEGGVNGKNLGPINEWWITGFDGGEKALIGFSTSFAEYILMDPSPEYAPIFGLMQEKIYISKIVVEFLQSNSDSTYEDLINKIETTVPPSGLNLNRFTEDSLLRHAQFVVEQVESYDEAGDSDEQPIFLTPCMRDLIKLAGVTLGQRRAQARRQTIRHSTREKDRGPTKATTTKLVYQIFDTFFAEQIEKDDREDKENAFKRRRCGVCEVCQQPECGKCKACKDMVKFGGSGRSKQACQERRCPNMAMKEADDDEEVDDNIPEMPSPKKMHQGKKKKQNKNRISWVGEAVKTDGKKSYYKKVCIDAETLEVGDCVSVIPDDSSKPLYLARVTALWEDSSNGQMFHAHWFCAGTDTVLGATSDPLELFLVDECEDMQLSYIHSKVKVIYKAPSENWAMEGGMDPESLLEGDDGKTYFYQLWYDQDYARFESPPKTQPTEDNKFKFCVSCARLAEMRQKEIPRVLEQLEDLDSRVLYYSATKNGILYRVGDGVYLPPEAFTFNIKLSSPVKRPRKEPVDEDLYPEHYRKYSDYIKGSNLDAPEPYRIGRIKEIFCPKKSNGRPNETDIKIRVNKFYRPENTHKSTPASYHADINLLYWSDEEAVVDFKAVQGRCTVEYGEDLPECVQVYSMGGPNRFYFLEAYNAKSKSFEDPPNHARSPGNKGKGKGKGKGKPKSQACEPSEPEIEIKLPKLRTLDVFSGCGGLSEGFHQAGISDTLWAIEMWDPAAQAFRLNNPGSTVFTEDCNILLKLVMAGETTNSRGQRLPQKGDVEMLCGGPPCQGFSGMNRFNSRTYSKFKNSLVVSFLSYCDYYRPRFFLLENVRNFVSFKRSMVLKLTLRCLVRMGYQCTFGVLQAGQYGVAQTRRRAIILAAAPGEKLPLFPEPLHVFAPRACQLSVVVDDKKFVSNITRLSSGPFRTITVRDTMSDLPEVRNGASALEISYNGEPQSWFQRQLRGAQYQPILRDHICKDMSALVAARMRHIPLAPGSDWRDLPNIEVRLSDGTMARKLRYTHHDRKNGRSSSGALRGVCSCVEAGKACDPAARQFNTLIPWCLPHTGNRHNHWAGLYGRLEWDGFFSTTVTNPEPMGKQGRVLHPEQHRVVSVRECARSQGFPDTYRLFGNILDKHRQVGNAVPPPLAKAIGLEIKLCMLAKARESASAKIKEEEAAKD
Sequence of Luciferin 4-monooxygenase (P08659 whole entry): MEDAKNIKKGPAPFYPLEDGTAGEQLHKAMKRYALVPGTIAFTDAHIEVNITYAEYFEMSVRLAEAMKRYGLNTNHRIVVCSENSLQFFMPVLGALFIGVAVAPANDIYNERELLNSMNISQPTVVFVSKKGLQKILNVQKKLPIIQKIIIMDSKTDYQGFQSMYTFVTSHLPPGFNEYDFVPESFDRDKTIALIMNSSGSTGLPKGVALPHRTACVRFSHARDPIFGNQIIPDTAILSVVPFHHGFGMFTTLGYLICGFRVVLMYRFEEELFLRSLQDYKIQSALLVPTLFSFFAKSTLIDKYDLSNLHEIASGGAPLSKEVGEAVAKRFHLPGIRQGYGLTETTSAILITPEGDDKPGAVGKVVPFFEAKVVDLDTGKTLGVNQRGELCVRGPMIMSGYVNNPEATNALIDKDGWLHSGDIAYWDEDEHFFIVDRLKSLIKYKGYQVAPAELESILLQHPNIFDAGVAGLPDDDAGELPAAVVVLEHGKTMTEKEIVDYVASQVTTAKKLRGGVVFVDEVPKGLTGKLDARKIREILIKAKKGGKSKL
Sequence of Mu-type opioid receptor (P35372 whole entry): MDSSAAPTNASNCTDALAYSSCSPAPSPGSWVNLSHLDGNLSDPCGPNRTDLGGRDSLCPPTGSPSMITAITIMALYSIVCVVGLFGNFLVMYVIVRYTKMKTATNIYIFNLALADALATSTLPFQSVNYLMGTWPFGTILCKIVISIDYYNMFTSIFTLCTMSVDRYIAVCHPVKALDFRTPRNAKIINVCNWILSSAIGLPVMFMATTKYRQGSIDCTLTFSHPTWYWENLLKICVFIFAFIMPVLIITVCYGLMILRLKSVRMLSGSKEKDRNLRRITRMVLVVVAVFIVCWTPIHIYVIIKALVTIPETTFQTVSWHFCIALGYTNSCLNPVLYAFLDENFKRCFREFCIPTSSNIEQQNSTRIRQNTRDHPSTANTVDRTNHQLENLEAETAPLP
Sequence of 5-hydroxytryptamine receptor 2A (P35363 whole entry): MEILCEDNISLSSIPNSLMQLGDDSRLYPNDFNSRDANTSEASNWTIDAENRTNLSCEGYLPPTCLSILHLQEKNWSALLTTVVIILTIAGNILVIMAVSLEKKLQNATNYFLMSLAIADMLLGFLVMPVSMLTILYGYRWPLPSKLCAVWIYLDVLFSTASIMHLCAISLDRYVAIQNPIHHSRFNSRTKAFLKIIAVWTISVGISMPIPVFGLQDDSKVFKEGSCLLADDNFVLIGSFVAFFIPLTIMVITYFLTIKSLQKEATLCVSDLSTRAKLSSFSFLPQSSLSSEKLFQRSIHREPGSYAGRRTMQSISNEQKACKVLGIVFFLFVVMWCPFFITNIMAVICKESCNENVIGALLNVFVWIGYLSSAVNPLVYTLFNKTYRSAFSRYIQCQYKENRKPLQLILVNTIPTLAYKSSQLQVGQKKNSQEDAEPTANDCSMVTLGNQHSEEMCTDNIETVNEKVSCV

Q: Which EC50 [1] does the source give for `O=C(Oc1ccc(-c2nc(-c3ccccn3)no2)cc1)c1ccccc1` here?
A: The EC50 was 4.55 µM (active).

Q: What about the EC50 [2] of the same compound?
A: The EC50 was 3.19 µM (active).

Q: And the EC50 [3]?
A: The EC50 was 421 nM (active).

Q: And the EC50 [4]?
A: The EC50 was 475 nM (active).

Q: What about the EC50 [5] of the same compound?
A: The EC50 was 16.8 µM (active).

Q: What about the EC50 [6] of the same compound?
A: The EC50 was 3.96 µM (active).

Q: And the AC50 [7]?
A: The AC50 was 2.63 µM (active).

Q: What about the EC50 [8] of the same compound?
A: Its EC50 is > 133 µM (inactive).

Q: What about the IC50 [9] of the same compound?
A: The IC50 was > 99 µM (inactive).

Q: Which results are given for `CNCC(=O)c1ccc(O)c(O)c1` [ADRENALONE]?
A: EC50 [10]: 92.4 µM (inactive); EC50 [11]: 4.04 µM (active)

Q: With `CC(=O)OC1CC2(C)/C(=N\O)CCC2C2CCc3cc(O)ccc3C12` (centres undefined) as the compound, how does the IC50 [12] read?
A: Its IC50 is 953 nM (active).

Q: What about the IC50 [13] of the same compound?
A: Its IC50 is 605 nM (active).

Q: Which IC50 [14] does the source give for `CC[C@]12c3[nH]c4ccc(OC)cc4c3CCN1C(=O)C(CC(=O)NCC13C[C@H]4C[C@@H](C1)C[C@@H](C3)C4)C[C@@H]2C(=O)N1CCN(C(=O)C2CC2)CC1` (some centres undefined) here?
A: The IC50 was 12.9 µM (inactive).

Q: With `CCCCC[C@H](O)/C=C/[C@@H]1[C@@H](C/C=C\CCCC(=O)O)[C@@H](O)C[C@H]1O` [DINOPROST TROMETHAMINE] as the compound, how does the IC50 [12] read?
A: The IC50 was 2940 nM (active).

Q: What about the IC50 [13] of the same compound?
A: The IC50 was 2770 nM (active).

Q: Which results are given for `Cc1ccc(S(=O)(=O)N2CCC(C(=O)NCc3ccccc3Cl)CC2)cc1`?
A: IC50 [15]: 17.5 µM (active); IC50 [16]: 9.46 µM (active)

Q: Which results are given for `COC(=O)c1c(NC(=O)C2Cc3ccccc3C(=O)O2)sc2c1CCCC2` (centres undefined)?
A: IC50 [15]: 1.62 µM (active); IC50 [16]: 1.02 µM (active)

Q: For `Cc1ccc(NC(=O)c2ccc3nc(N4CCOCC4)sc3c2)c(Cl)c1`, which IC50 [17] is on record?
A: The IC50 was 1.97 µM (active).

Q: And the IC50 [18]?
A: The IC50 was 17.2 µM (active).

Q: What about the IC50 [19] of the same compound?
A: The IC50 was 804 nM (active).

Q: For `COC(=O)Nc1sc2c(c1C(N)=O)CCC(C)C2` (centres undefined), which IC50 [20] is on record?
A: The IC50 was 1.9 µM (active).

Q: And the IC50 [21]?
A: The IC50 was 3.56 µM (active).

Q: What about the IC50 [22] of the same compound?
A: Its IC50 is > 158 µM (not active).

Q: What about the IC50 [17] of the same compound?
A: The IC50 was 1.81 µM (active).

Q: What about the IC50 [18] of the same compound?
A: Its IC50 is 4.65 µM (active).

Q: What about the IC50 [19] of the same compound?
A: The IC50 was 312 nM (active).
